Reference: US20040254094A1, “Suppression of cyclin kinase activity for prevention and treatment of infections” (priority 2000, published 2004)
Read-outs that look alike come from different tables or passages of the source.

Legend:
CDK1/cyclin B = settings: cited from earlier work
LU cells = settings: within 24 hr after serum in the presence of PAA (about 68% without inhibitor)
Source text: The specificity of PAA was confirmed by measuring cellular DNA content after serum stimulation of quiescent LU cells in the presence and absence of PAA.

human lung fibroblasts = settings: 100 μg/ml (0.75 mM); cited from earlier work
HCMV [1] = experiment: Viral late antigen pp28 expression by immunofluorescence in HCMV-infected LU cells; assay type: cell-based, Human cytomegalovirus; settings: between 24 and 96 hr after infection in the presence of PAA
Procedure: Cells were cultured on sterile glass coverslips. The cells were washed three times in PBS and fixed in acetone:methanol (1:1) at −20° C. for 10 min. The permeabilized cells were incubated with primary antibody diluted in PBS for 1 hr at 37° C. in a humidified chamber. […] The excess conjugate was removed by washing the cells in PBS for 30 min. After drying, the cells were mounted in PBS/glycerol (1:1) and examined with the aid of a Zeiss Photomicroscope III using a 40/1.0 Neofluar lens. Images were photographed on slide film.

[2] = system: HCMV-infected subconfluent LU cells; experiment: Cell cycle distribution (DNA content, flow cytometry) following HCMV infection of subconfluent LU cells; settings: for Percent cells in phase G0/G1 / Percent cells in phase G2/M / Percent cells in phase S: HCMV 5 PFU/cell + PAA 100 μg/ml, mean (SD)
Procedure: The DNA content of serum-arrested, HCMV-infected, subconfluent LU cells was analyzed by flow cytometry to determine to what extent productively infected cells initiate DNA synthesis.
Next, the DNA content of LU cells as a function of time after HCMV infection of subconfluent cells in the presence of PAA was analyzed.

Human Cytomegalovirus = experiment: Infectious HCMV yield by plaque assay from infected density-arrested LU cells; assay type: cell-based, Human cytomegalovirus strain AD169; settings: for inhibition at 3.3 µM / inhibition at 10 µM / inhibition at 33 µM / inhibition at 100 µM: Human betaherpesvirus 5, 96 h
[3] = Tolerated dose in animals; assay type: in vivo; settings: printed 'tolerated by rate'
Source text: The preferred dosage of CDK inhibitor in a parenteral administration may vary, depending upon the extent of the virus infection, the severity of the symptoms associated with the infection and patient age, weight and medical history. The number of administrations of the parenteral composition of the CDK inhibitor will also vary according to the response of the individual patient to the treatment. In one exemplary application, the dosage of CDK inhibitor may vary with the type of disease and the route of administration. Further studies with animal models of infection will completely define projected doses. […] Weaker CDK2 inhibitors will be needed at higher concentrations, and stronger, at lower.

HCMV-infected LU cells = experiment: Hematoxylin and eosin staining of HCMV-infected LU cells
HCMV [4] = experiment: HCMV DNA abundance by slot blot hybridization in infected density-arrested LU cells; assay type: cell-based, Human cytomegalovirus strain AD169; settings: 72 hr post-infection
non-infected LU cells = experiment: Hematoxylin and eosin staining of non-infected LU cells; assay type: cell-based, human; settings: 15 μM for 96 hr
[5] = read-out: Percent inhibition of HCMV infectious yields, 3.3 μM, harvested 96 hrs
[6] = read-out: Percent inhibition of HCMV infectious yields, 10 μM (third line of each group), harvested 96 hrs
[7] = read-out: Percent inhibition of HCMV infectious yields, 10 μM, harvested 96 hrs
[8] = read-out: Percent inhibition of HCMV infectious yields, 33 μM, harvested 96 hrs
[9] = read-out: Percent inhibition of HCMV infectious yields, 100 μM, harvested 96 hrs
[10] = 10 μM (third line of each group), harvested 96 hrs
[11] = 3.3 μM, harvested 96 hrs, read-out: Percent inhibition of HCMV infectious yields
[12] = 10 μM (third line of each group), harvested 96 hrs, read-out: Percent inhibition of HCMV infectious yields
[13] = 10 μM, harvested 96 hrs, read-out: Percent inhibition of HCMV infectious yields
[14] = 33 μM, harvested 96 hrs, read-out: Percent inhibition of HCMV infectious yields
[15] = 100 μM, harvested 96 hrs, read-out: Percent inhibition of HCMV infectious yields

Compound: CC(C)=CCNc1ncnc2nc[nH]c12 [Isopentenyladenine]
- IC50 (CDK1/cyclin B): 55 µM

Compound: O=C(O)CP(=O)(O)O [PAA, phosphonoacetic acid]
- cells in S, G2, or M phase (LU cells): about 57%
- viral DNA replication (human lung fibroblasts): blocks viral DNA replication
- pp28 expression (HCMV [1]): could not be detected
- Percent cells in phase G0/G1 ([2]; 0 hrs after treatment): 93.3 (1.2) %
- Percent cells in phase G2/M ([2]; 0 hrs after treatment): 5.1 (1.0) %
- Percent cells in phase S ([2]; 0 hrs after treatment): 1.6 (0.2) %
- Percent cells in phase G0/G1 ([2]; 24 hrs): 97.2 (0.4) %
- Percent cells in phase G2/M ([2]; 24 hrs): 1.9 (0.3) %
- Percent cells in phase S ([2]; 24 hrs): 0.9 (0.1) %
- Percent cells in phase G0/G1 ([2]; 48 hrs): 97.1 (0.8) %
- Percent cells in phase G2/M ([2]; 48 hrs): 1.3 (0.4) %
- Percent cells in phase S ([2]; 48 hrs): 1.5 (0.4) %
- Percent cells in phase G0/G1 ([2]; 72 hrs): 97.2 (0.3) %
- Percent cells in phase G2/M ([2]; 72 hrs): 0.9 (0.1) %
- Percent cells in phase S ([2]; 72 hrs): 1.9 (0.3) %
- DNA content of LU cells after HCMV infection in the presence of PAA ([2]; subconfluent cells): no detectable increase in DNA content

Compound: O=C1Cc2c([nH]c3ccc([N+](=O)[O-])cc23)-c2ccccc2N1 [Alsterpaullone]
- inhibition at 3.3 µM (Human Cytomegalovirus; [5]): 100%
- inhibition at 10 µM (Human Cytomegalovirus; [6]): 100%
- inhibition at 10 µM (Human Cytomegalovirus; [7]): 100%
- inhibition at 33 µM (Human Cytomegalovirus; [8]): 100%
- inhibition at 100 µM (Human Cytomegalovirus; [9]): 100%

Compound: N#Cc1cn([C@@H]2O[C@H](CO)[C@@H](O)[C@H]2O)c2ncnc(N)c12 [Toyocamycin]
- IC50 (CDK1/cyclin B): 0.88 µM

Compound: CN(C)c1ncnc2nc[nH]c12 [6-Dimethylaminopurine]
- IC50 (CDK1/cyclin B): 120 µM

Compound: CC[C@H](CO)Nc1nc(NCc2ccccc2)c2ncn(C(C)C)c2n1 [Roscovitine]
- tolerated dose [3]: 3 µg/kg
- morphology of HCMV-infected cells (HCMV-infected LU cells; 5 μM, 96 hr post-infection): rounded and appeared to be undergoing cell death
- morphology of HCMV-infected cells (HCMV-infected LU cells; 15 μM, 96 hr after infection): clearly dying or dead
- HCMV DNA abundance reduced by (HCMV [4]; 1 μM): ~50%
- viral DNA abundance reduced by (HCMV [4]; 10 μM): > 90%
- morphological changes of non-infected cells (non-infected LU cells): no morphological changes
- Infectious HCMV yields reduced by (Human Cytomegalovirus; 2.5 μM, 96 hr post-infection): > 90%
- inhibition at 3.3 µM (Human Cytomegalovirus; [5]): 90.7%
- inhibition at 10 µM (Human Cytomegalovirus; [6]): 96.5%
- inhibition at 10 µM (Human Cytomegalovirus; [7]): 91.3%
- inhibition at 33 µM (Human Cytomegalovirus; [8]): 100%
- inhibition at 100 µM (Human Cytomegalovirus; [9]): > 100%
- inhibition at 10 µM (Human Cytomegalovirus; read-out: inhibition of infectious HCMV yields, 10 μM, 96 hr post-infection): > 99.9%

Compound: O=C1CCCO1 [γ-Butyrolactone]
- IC50 (CDK1/cyclin B): 0.6 µM

Compound: OCCCNc1cc(-c2ccnc(Nc3cccc(Cl)c3)n2)ccn1 [CGP60474]
- IC50 (CDK1/cyclin B): 0.02 µM

Compound: Indirubin-3′-monoxime
- Percent inhibition of HCMV infectious yields (Human Cytomegalovirus; 3.3 μM, harvested 96 hrs): 56.69%
- Percent inhibition of HCMV infectious yields (Human Cytomegalovirus; [10]): 99.9988%
- Percent inhibition of HCMV infectious yields (Human Cytomegalovirus; 10 μM, harvested 96 hrs): 26.67%
- Percent inhibition of HCMV infectious yields (Human Cytomegalovirus; 33 μM, harvested 96 hrs): 99.9976%
- Percent inhibition of HCMV infectious yields (Human Cytomegalovirus; 100 μM, harvested 96 hrs): 99.9992%
- IC50 (CDK1/cyclin B): 0.18 µM

Compound: CC(C)[C@H](CO)Nc1nc(Nc2cc(N)cc(Cl)c2)c2ncn(C(C)C)c2n1 [NG97, aminopurvalanol]
- inhibition at 3.3 µM (Human Cytomegalovirus; [11]): 99.9%
- inhibition at 10 µM (Human Cytomegalovirus; [12]): 100%
- inhibition at 10 µM (Human Cytomegalovirus; [13]): 51.3%
- inhibition at 33 µM (Human Cytomegalovirus; [14]): 100%
- inhibition at 100 µM (Human Cytomegalovirus; [15]): 100%

Compound: Cc1ccc(C(=O)Nc2ccc(S(=O)(=O)O)c3cc(S(=O)(=O)O)cc(S(=O)(=O)O)c23)cc1NC(=O)c1cccc(NC(=O)Nc2cccc(C(=O)Nc3cc(C(=O)Nc4ccc(S(=O)(=O)O)c5cc(S(=O)(=O)O)cc(S(=O)(=O)O)c45)ccc3C)c2)c1 [Suramin]
- IC50 (CDK1/cyclin B): 4 µM

Compound: CN1CC[C@H](c2c(O)cc(O)c3c(=O)cc(-c4ccccc4Cl)oc23)[C@H](O)C1 [Flavopiridol]
- inhibition at 3.3 µM (Human Cytomegalovirus; [11]): 100%
- inhibition at 10 µM (Human Cytomegalovirus; [12]): 100%
- inhibition at 10 µM (Human Cytomegalovirus; [13]): 100%
- inhibition at 33 µM (Human Cytomegalovirus; [14]): 100%
- inhibition at 100 µM (Human Cytomegalovirus; [15]): 100%

Compound: COc1ccc(CNc2nc(N(CCO)CCO)nc3c2ncn3C(C)C)cc1 [CVT-313]
- IC50 (CDK1/cyclin B): 4.2 µM

Compound: CN[C@@H]1C[C@H]2O[C@@](C)([C@@H]1OC)n1c3ccccc3c3c4c(c5c6ccccc6n2c5c31)C(=O)NC4 [Staurosporine]
- IC50 (CDK1/cyclin B): 0.004 µM

Compound: Purvalanol A&B
- IC50 (CDK1/cyclin B): 0.004 µM

Compound: Cc1c2ccncc2c(C)c2c1[nH]c1ccc(O)cc12 [9-hydroxyellipticine]
- IC50 (CDK1/cyclin B): 1 µM

Compound: CCCCc1c(-c2ccc(O)cc2)[nH]c2nccnc12 [RP107]
- Percent inhibition of HCMV infectious yields (Human Cytomegalovirus; 3.3 μM, harvested 96 hrs): 96.67%
- Percent inhibition of HCMV infectious yields (Human Cytomegalovirus; [10]): 99.98%
- Percent inhibition of HCMV infectious yields (Human Cytomegalovirus; 10 μM, harvested 96 hrs): 74.67%
- Percent inhibition of HCMV infectious yields (Human Cytomegalovirus; 33 μM, harvested 96 hrs): 99.9968%
- Percent inhibition of HCMV infectious yields (Human Cytomegalovirus; 100 μM, harvested 96 hrs): 99.9984%
